From patent US4542137A, “Alkylaminodesoxy-1.4;3.6-dianhydrohexitol nitrates substituted by purine bases and pharmaceutical compositions” (priority 1980, dated 1985) come the findings set out here.

Like-named read-outs stand apart in the source and are kept apart here. Some results are limits rather than exact numbers.

Data set [1] relates to isolated rat aorta preparations. The data set is described as follows: spasmolytic effectiveness on isolated rat aorta preparations (noradrenaline- and potassium chloride-induced contractions).
The next data set has as its system female NMRI-albino mice. The data set can be described thus: examination of acute toxicity, i.v., female NMRI-albino mice. The class given is in vivo. The conditions noted are these: within 24 hours; for Frequency of death with an intravenous dose of 100 mg/kg: 100 mg/kg i.v.; for Frequency of death with an intravenous dose of 200 mg/kg: 200 mg/kg i.v.; for Frequency of death with an intravenous dose of 50 mg/kg: 50 mg/kg i.v. How it is done: (§1) . The compounds were injected to at least 3 animals per dose. If no animal had yet been died following to the highest dose which was administered, no more doses of substances were tested. In case of doubt, the examination was repeated with at least 3 more animals applying the same dose.
(§2) The rate of death within 24 hours after administration was observed.
(§3) In table IX, the determined rates of death as well as the LD50 -ranges evaluated therefrom are shown.

Test in data set [2]: as above
The class given is in vivo. The conditions noted are these: mouse, in vivo, iv, mice, 24 hours; read-out: Evaluated LD50-range. How it is done:
as §1, §2, §3

The subject of data set [3] is isolated guinea pig hearts. The data set can be described thus: coronary flowthrough-increasing effectiveness on isolated guinea pig hearts according to Langendorff. The conditions noted are these: Cavia porcellus, 25 μg/ml in tyrode solution, Langendorff heart; for activation at 25 µg/mL: read-out: flowthrough (coronary), percentage change in comparison with the initial value. How it is done:
After achieving the stationary state in the 30th minute, the hearts were each infused with 50 ml. tyrode solution with a content of test substance of, in each case, 25 μg./ml. Each test substance was tested on 3-6 hearts.
In each case, there was measured the inotropism, the flowthrough and the frequency, whereby the values given in Table I are average values of the percentage changes in comparison with the starting values.

Where [4] appears, read: read-out: ED50 for spasmolytic action, Noradrenaline spasm (50% inhibition).
[5] abbreviates: read-out: ED50 for spasmolytic action, potassium chloride spasm (50% inhibition).
The mark [6] stands for this setting: read-out: frequency, percentage change in comparison with the initial value.
[7] abbreviates: read-out: inotropism, percentage change in comparison with the initial value.

By LD50 is commonly meant the dose expected to kill half of the subjects tested. For the molecule `Cn1c(=O)c2c(ncn2CCN[C@H]2CO[C@H]3[C@@H]2OC[C@@H]3O[N+](=O)[O-])n(C)c1=O` [Example 2, 5-(2-Theophyllin-7-ylethyl)-amino-5-desoxy-1.4;3.6-dianhydro-L-iditol 2-nitrate], the values for the IC50 in data set [1] (setting [4]) and in data set [1] (setting [5]) were 4.2 µM and 30.5 µM, respectively. Moreover, the “Frequency of death with an intravenous dose of 100 mg/kg” value (“Frequency of death … of 100 mg/kg” below) with female NMRI-albino mice was 0/3. Further, the “Frequency of death with an intravenous dose of 200 mg/kg” value (shortened to “Frequency of death … of 200 mg/kg”) in the data set on female NMRI-albino mice was 1/3. For the same molecule, the LD50 at 24 h in data set [2] was at least 200 mg/kg. Besides, the activation at 25 µg/mL in data set [3] amounted to 34.7%. The inhibition at 25 µg/mL in data set [3] (setting [6]) was -3.5%; in data set [3] (setting [7]), 4.6%.
`Cn1c(=O)c2c(ncn2CCCCN[C@H]2CO[C@H]3[C@@H]2OC[C@@H]3O[N+](=O)[O-])n(C)c1=O` [Example 3, 5-(4-Theophyllin-7-ylbutyl)-amino-5-desoxy-1.4;3.6-dianhydro-L-iditol 2-nitrate]: the values for the IC50 in data set [1] (setting [4]) and in data set [1] (setting [5]) were 2.6 µM and 3.6 µM, respectively. Besides, the “Frequency of death … of 200 mg/kg” value in the data set on female NMRI-albino mice was 0/6. Moreover, the LD50 at 24 h in data set [2] is over 200 mg/kg. Further, the activation at 25 µg/mL in data set [3] was found to be 36.4%. For the same molecule, the inhibition at 25 µg/mL in data set [3] (setting [6]) came to 4.8%; in data set [3] (setting [7]) it was 3.82%.
Consider `Cn1c(=O)c2c(ncn2CCCCCN[C@H]2CO[C@H]3[C@@H]2OC[C@@H]3O[N+](=O)[O-])n(C)c1=O` [Example 4, 5-(5-Theophyllin-7-ylpentyl)-amino-5-desoxy-1.4;3.6-dianhydro-L-iditol 2-nitrate], for which the IC50 was determined as 2.7 µM in data set [1] (setting [4]) and 3.8 µM in data set [1] (setting [5]). Moreover, the “Frequency of death … of 100 mg/kg” value in the data set with female NMRI-albino mice is given as 0/10. Besides, the “Frequency of death … of 200 mg/kg” value in the data set with female NMRI-albino mice was 10/10. For the same molecule, the LD50 at 24 h in data set [2] was 100 to 200 mg/kg. Besides, in data set [3], the activation at 25 µg/mL came to 55.7%. For the same molecule, the inhibition at 25 µg/mL in data set [3] (setting [6]) came out at 8.41%; in data set [3] (setting [7]) it was 5.44%.
For `Cn1c(=O)c2c(ncn2CCCCCCN[C@H]2CO[C@H]3[C@@H]2OC[C@@H]3O[N+](=O)[O-])n(C)c1=O` [Example 5, 5-(6-Theophyllin-7-ylhexyl)-amino-5-desoxy-1.4;3.6-dianhydro-L-iditol 2-nitrate], the IC50 in data set [1] (setting [4]) was found to be 0.36 µM. In data set [1] (setting [5]), the IC50 was found to be 2.4 µM. In addition, in the data set with female NMRI-albino mice, the “Frequency of death with an intravenous dose of 50 mg/kg” value (“Frequency of death … of 50 mg/kg” for short) was 0/10, the “Frequency of death … of 100 mg/kg” value was 4/10 and the “Frequency of death … of 200 mg/kg” value is 10/10. Also, the LD50 at 24 h in data set [2] is at least 100 mg/kg. Besides, the activation at 25 µg/mL in data set [3] is 61.9%. Besides, the inhibition at 25 µg/mL in data set [3] (setting [6]) amounted to 11.1%. Besides, the inhibition at 25 µg/mL in data set [3] (setting [7]) was determined as 43.3%.
As to `Cn1c(=O)c2c(ncn2CC(O)CN[C@H]2CO[C@H]3[C@@H]2OC[C@@H]3O[N+](=O)[O-])n(C)c1=O` (stereo partly drawn) [Example 6, 5-(2-Hydroxy-3-theophyllin-7-ylpropyl)-amino-5-desoxy-1.4;3.6-dianhydro-L-iditol 2-nitrate], the IC50 stood at 1.12 µM in data set [1] (setting [4]) and 18 µM in data set [1] (setting [5]). The activation at 25 µg/mL in data set [3] turned out to be 53.3%. For the same molecule, the values for the inhibition at 25 µg/mL in data set [3] (setting [6]) and in data set [3] (setting [7]) were -3.39% and -4.5%, respectively.
Regarding `Cn1cnc2c1c(=O)n(CCCN[C@H]1CO[C@H]3[C@@H]1OC[C@@H]3O[N+](=O)[O-])c(=O)n2C` [Example 7c, 5-[3-(3,7-Dimethylxanthin-1-yl)-propylamino]-5-desoxy-1.4;3.6-dianhydro-L-iditol 2-nitrate], the “Frequency of death … of 200 mg/kg” value in the data set on female NMRI-albino mice is listed as 0/6. In addition, the 50% lethal dose (LD50) at 24 h in data set [2] is over 200 mg/kg. Moreover, the activation at 25 µg/mL in data set [3] came to 28.9%. Further, the percent change from initial value at 25 µg/mL in data set [3] (setting [6]) came to 0%. The inhibition at 25 µg/mL in data set [3] (setting [7]) is -10.5%.
Turning to `CC(C)Cn1c(=O)n(C)c(=O)c2c1ncn2CCCN[C@H]1CO[C@H]2[C@@H]1OC[C@@H]2O[N+](=O)[O-]` [Example 8c, 5-[3-(3-Isobutyl-1-methylxanthin-7-yl)-propylamino]-5-desoxy-1.4;3.6-dianhydro-L-iditol 2-nitrate], in the data set on female NMRI-albino mice, the “Frequency of death … of 100 mg/kg” value is listed as 0/3 and the “Frequency of death … of 200 mg/kg” value is 11/13. Besides, the LD50 at 24 h in data set [2] was in the range of 100 to 200 mg/kg.
On to `Cn1c(=O)c2c(ncn2CCCN[C@@H]2CO[C@H]3[C@@H]2OC[C@@H]3O[N+](=O)[O-])n(C)c1=O` [Example 10c, 5-(3-Theophyllin-7-ylpropyl)-amino-5-desoxy-1.4;3.6-dianhydro-D-glucitol 2-nitrate], for which the “Frequency of death … of 200 mg/kg” value with female NMRI-albino mice is recorded as 0/6. In addition, the 50% lethal dose (LD50) at 24 h in data set [2] was over 200 mg/kg. Besides, the activation at 25 µg/mL in data set [3] came out at 13%. For the same molecule, the inhibition at 25 µg/mL in data set [3] (setting [6]) worked out at 5.6%; in data set [3] (setting [7]), 6.4%.
For `Cn1c(=O)c2c(ncn2CCCN[C@H]2CO[C@H]3[C@@H]2OC[C@H]3O[N+](=O)[O-])n(C)c1=O` [Example 11d, 2-(3-Theophyllin-7-ylpropyl)-amino-2-desoxy-1.4;3.6-dianhydro-D-glucitol 5-nitrate], the “Frequency of death … of 200 mg/kg” value in the data set on female NMRI-albino mice is recorded as 0/6. In addition, in data set [2], the LD50 at 24 h is over 200 mg/kg.
As to `Cn1c(=O)c2c(ncn2CCCN[C@@H]2CO[C@H]3[C@@H]2OC[C@H]3O[N+](=O)[O-])n(C)c1=O` [Example 12d, 5-(3-Theophyllin-7-ylpropyl)-amino-5-desoxy-1.4;3.6-dianhydro-D-mannitol 2-nitrate], the “Frequency of death … of 200 mg/kg” value in the data set on female NMRI-albino mice is given as 0/6. In addition, the LD50 at 24 h in data set [2] was over 200 mg/kg.
For `Nc1ncnc2c1ncn2CCN[C@H]1CO[C@H]2[C@@H]1OC[C@@H]2O[N+](=O)[O-]` [Example 13, 5-(2-Adenin-9-ylethyl)-amino-5-desoxy-1.4;3.6-dianhydro-L-iditol 2-nitrate], in the data set with female NMRI-albino mice, the “Frequency of death … of 200 mg/kg” value is on record as 0/6. For the same molecule, the 50% lethal dose (LD50) at 24 h in data set [2] is over 200 mg/kg. Also, the activation at 25 µg/mL in data set [3] is 12.2%. The percent change from initial value at 25 µg/mL in data set [3] (setting [6]) worked out at 0%. Besides, in data set [3] (setting [7]), the inhibition at 25 µg/mL was -2.3%.
Consider `Nc1ncnc2c1ncn2CCCN[C@H]1CO[C@H]2[C@@H]1OC[C@@H]2O[N+](=O)[O-]` [Example 14, 5-(3-Adenin-9-ylpropyl)-amino-5-desoxy-1.4;3.6-dianhydro-L-iditol 2-nitrate], for which the IC50 in data set [1] (setting [4]) is 1.4 µM; in data set [1] (setting [5]), 43.9 µM. In addition, the activation at 25 µg/mL in data set [3] came to 55.8%. The percent change from initial value at 25 µg/mL in data set [3] (setting [6]) turned out to be 0%. Further, in data set [3] (setting [7]), the inhibition at 25 µg/mL is -3.8%.
Regarding `Nc1ncnc2c1ncn2CCCCN[C@H]1CO[C@H]2[C@@H]1OC[C@@H]2O[N+](=O)[O-]` [Example 15, 5-(4-Adenin-9-ylbutyl)-amino-5-desoxy-1.4;3.6-dianhydro-L-iditol 2-nitrate], in the data set on female NMRI-albino mice, the “Frequency of death … of 50 mg/kg” value is 3/3, the “Frequency of death … of 100 mg/kg” value is recorded as 3/3 and the “Frequency of death … of 200 mg/kg” value is recorded as 3/3. The LD50 at 24 h in data set [2] is under 50 mg/kg. Besides, the activation at 25 µg/mL in data set [3] was 47.1%. In addition, the inhibition at 25 µg/mL in data set [3] (setting [6]) is 3.45%. The inhibition at 25 µg/mL in data set [3] (setting [7]) was -3.85%.
As for `Nc1ncnc2c1ncn2CCCCCN[C@H]1CO[C@H]2[C@@H]1OC[C@@H]2O[N+](=O)[O-]` [Example 16, 5-(5-Adenin-9-ylpentyl)-amino-5-desoxy-1.4;3.6-dianhydro-L-iditol 2-nitrate], in the data set on female NMRI-albino mice, the “Frequency of death … of 100 mg/kg” value is reported as 0/10 and the “Frequency of death … of 200 mg/kg” value is given as 10/10. The LD50 at 24 h in data set [2] was 100 to 200 mg/kg. Further, the activation at 25 µg/mL in data set [3] stood at 22.5%. In addition, in data set [3] (setting [6]), the inhibition at 25 µg/mL turned out to be 6.8%. Moreover, in data set [3] (setting [7]), the inhibition at 25 µg/mL was -6.5%.
In the case of `Nc1ncnc2c1ncn2CCCCCCN[C@H]1CO[C@H]2[C@@H]1OC[C@@H]2O[N+](=O)[O-]` [Example 17, 5-(6-Adenin-9-ylhexyl)-amino-5-desoxy-1.4;3.6-dianhydro-L-iditol 2-nitrate], in the data set with female NMRI-albino mice, the “Frequency of death … of 50 mg/kg” value is reported as 0/10, the “Frequency of death … of 100 mg/kg” value was 2/3 and the “Frequency of death … of 200 mg/kg” value is recorded as 3/3. In addition, the LD50 at 24 h in data set [2] lay in the range of 50 to 100 mg/kg. For the same molecule, the activation at 25 µg/mL in data set [3] turned out to be 60.6%. Besides, the inhibition at 25 µg/mL in data set [3] (setting [6]) is 3.6%. Besides, the inhibition at 25 µg/mL in data set [3] (setting [7]) came out at 11.5%.
